PubChem BioAssay (NCI)
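Where inhibition never reached the appropriate level, the endpoint shown equals the highest concentration tested. Otherwise, values were interpolated linearly from a five-concentration, 48-hour dose response in 96-well plates. The concentration for full growth arrest is given as TGI.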

Assays:
Experiment in all cases: DTP human tumour cell line panel, 48 h
786-0 renal = test system: 786-0 renal
A498 renal = test system: A498 renal
A549 NSCLC = test system: A549 NSCLC
ACHN renal = test system: ACHN renal
CAKI-1 renal = test system: CAKI-1 renal
CCRF-CEM leukemia = test system: CCRF-CEM leukemia
COLO 205 colon = test system: COLO 205 colon
DU-145 prostate = test system: DU-145 prostate
EKVX NSCLC = test system: EKVX NSCLC
HCC-2998 colon = test system: HCC-2998 colon
HCT-116 colon = test system: HCT-116 colon
HCT-15 colon = test system: HCT-15 colon
HL-60(TB) leukemia = test system: HL-60(TB) leukemia
HOP-62 NSCLC = test system: HOP-62 NSCLC
HOP-92 NSCLC = test system: HOP-92 NSCLC
HS 578T breast = test system: HS 578T breast
HT29 colon = test system: HT29 colon
IGROV1 ovarian = test system: IGROV1 ovarian
K-562 leukemia = test system: K-562 leukemia
KM12 colon = test system: KM12 colon
LOX IMVI melanoma = test system: LOX IMVI melanoma
M14 melanoma = test system: M14 melanoma
MALME-3M melanoma = test system: MALME-3M melanoma
MCF7 breast = test system: MCF7 breast
MDA-MB-231 breast = test system: MDA-MB-231 breast
MDA-N = test system: MDA-N
MOLT-4 leukemia = test system: MOLT-4 leukemia
NCI-H226 lung = test system: NCI-H226 lung
NCI-H23 lung = test system: NCI-H23 lung
NCI-H460 lung = test system: NCI-H460 lung
NCI-H522 lung = test system: NCI-H522 lung
NCI/ADR-RES ovarian = test system: NCI/ADR-RES ovarian
OVCAR-3 ovarian = test system: OVCAR-3 ovarian
OVCAR-4 ovarian = test system: OVCAR-4 ovarian
OVCAR-5 ovarian = test system: OVCAR-5 ovarian
OVCAR-8 ovarian = test system: OVCAR-8 ovarian
PC-3 prostate = test system: PC-3 prostate
RPMI-8226 leukemia = test system: RPMI-8226 leukemia
RXF 393 renal = test system: RXF 393 renal
SF-268 CNS = test system: SF-268 CNS
SF-295 CNS = test system: SF-295 CNS
SF-539 CNS = test system: SF-539 CNS
SK-MEL-2 melanoma = test system: SK-MEL-2 melanoma
SK-MEL-28 melanoma = test system: SK-MEL-28 melanoma
SK-MEL-5 melanoma = test system: SK-MEL-5 melanoma
SK-OV-3 ovarian = test system: SK-OV-3 ovarian
SN12C renal = test system: SN12C renal
SNB-19 CNS = test system: SNB-19 CNS
SNB-75 CNS = test system: SNB-75 CNS
SR leukemia = test system: SR leukemia
SW-620 colon = test system: SW-620 colon
T-47D breast = test system: T-47D breast
TK-10 renal = test system: TK-10 renal
U251 CNS = test system: U251 CNS
UACC-257 melanoma = test system: UACC-257 melanoma
UO-31 renal = test system: UO-31 renal

Measured: TGI

CC(C)(C)C(=O)C(Cc1ccccc1)C(=O)C(C)(C)C
> 100 µM: 786-0 renal | A498 renal | A549 NSCLC | ACHN renal | CAKI-1 renal | CCRF-CEM leukemia | COLO 205 colon | DU-145 prostate | EKVX NSCLC | HCC-2998 colon | HCT-116 colon | HCT-15 colon | HL-60(TB) leukemia | HOP-62 NSCLC | HOP-92 NSCLC | HS 578T breast | HT29 colon | IGROV1 ovarian | K-562 leukemia | KM12 colon | LOX IMVI melanoma | M14 melanoma | MALME-3M melanoma | MCF7 breast | MDA-MB-231 breast | MDA-N | MOLT-4 leukemia | NCI-H226 lung | NCI-H23 lung | NCI-H460 lung | NCI-H522 lung | NCI/ADR-RES ovarian | OVCAR-3 ovarian | OVCAR-4 ovarian | OVCAR-5 ovarian | OVCAR-8 ovarian | PC-3 prostate | RPMI-8226 leukemia | RXF 393 renal | SF-268 CNS | SF-295 CNS | SF-539 CNS | SK-MEL-2 melanoma | SK-MEL-28 melanoma | SK-MEL-5 melanoma | SK-OV-3 ovarian | SN12C renal | SNB-19 CNS | SNB-75 CNS | SR leukemia | SW-620 colon | T-47D breast | TK-10 renal | U251 CNS | UACC-257 melanoma | UO-31 renal
